Test [1] has as its system Staphylococcus aureus. Put plainly: Radial diffusion bactericidal assay, Staphylococcus aureus. The note with it: radial diffusion; PROBIT analysis; S. aureus. The format is cell-based.
The subject of test [2] is E. coli 0111:B4 (smooth) bacteria. Put plainly: Radial diffusion bactericidal assay, E. coli 0111:B4. The format is cell-based. The note with it: radial diffusion; PROBIT analysis; E. coli O111:B4 (smooth).
Test [3] has as its system rough mutant E. coli J5 bacteria. Description: Radial diffusion bactericidal assay, E. coli J5. The class given is cell-based. Particulars: radial diffusion; PROBIT analysis; E. coli J5 (rough). The method, boiled down:
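Log-phase bacteria, washed in 10 mM sodium phosphate pH 7.4, were seeded at 4×10^6 CFU/mL in underlayer agarose. BPI fragments (5 or 10 μL) went into 3 mm wells for 3 h at 37° C., then overlayer agarose was added. After overnight 37° C. incubation, clearing zones were measured by micrometer.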

The subject of test [4] is Candida albicans. The class given is cell-based.
Test [5] relates to RAW 264.7 cells. Put plainly: LPS neutralization cellular proliferation assay, RAW 264.7 cells. The format is cell-based, mouse. The method, then: In this assay, mouse RAW 264.7 cells (ATCC Accession No. T1B71), maintained in RPMI 1640 media (GIBCO), supplemented with 10 mM HEPES buffer (pH 7.4), 2 mM L-glutamine, penicillin (100U/mL), streptomcin (100 μg/mL), 0.075% sodium bicarbonate, […] 2-mercaptoethanol and 10% fetal bovine serum (Hyclone, Inc., Logan, Utah), were first induced by incubation in the presence of 50U/mL recombinant mouse y-interferon (Genzyme, Cambridge, Mass.) for 24 h prior to assay. Induced cells were then mechanically collected and centrifuged at 500×g at 4° C. and then resuspended in 50 mL RPMI 1640 media (without supplements), re-centrifuged and again resuspended in RPMI 1640 media (without supplements). The cells were counted and their concentration adjusted to 2×10^5 cells/mL and 100 μL aliquots were added to each well of a 96-well microtitre plate. The cells were then incubated for about 15 hours with E. coli O113 LPS (Control Standard. Assoc. of Cape Cod. Woods Hole, Mass.), which was added in 100 μL/well aliquots at a concentration of […] in serum-free RPMI 1640 media (this concentration being the result of titration experiments in which LPS concentration was varied between 50 pg/mL and 100 ng/mL). This incubation was performed in the absence or presence of BPI functional domain peptides in varying concentrations between 25 ng/mL and 50 μg/mL. Recombinant human BPI was used as a positive control at a concentration of 1 μg/mL. Cell proliferation was quantitatively measured by the addition of 1 μCi/well [^3H]-thymidine 5 hours after the time of initiation of the assay. After the 15-hour incubation, labeled cells were harvested onto glass fiber filters with a cell harvester (Inotech Biosystems, EQ-384, Sample Processing and Filter Counting System, Lansing, Mich.).

Converted amounts (≈) assume the structure as drawn. Bridge positions count the residues as written; N and C are the ends. Square brackets hold non-standard residues; d marks the D form. Ends that are not written are not given here. Peptide text beside a SMILES is read from it. 1Nal = N[C@@H](Cc1cccc2ccccc12)C(=O)O

Regarding `CC[C@H](C)[C@H](NC(=O)[C@H](CC(C)C)NC(=O)[C@H](Cc1c[nH]c2ccccc12)NC(=O)CNC(=O)[C@@H](NC(=O)[C@H](CCCCN)NC(=O)[C@H](CO)NC(=O)[C@@H](N)CCCCN)C(C)C)C(=O)N[C@@H](CCC(N)=O)C(=O)N[C@@H](CC(C)C)C(=O)N[C@@H](Cc1ccccc1)C(=O)N[C@@H](Cc1cccc2ccccc12)C(=O)N[C@@H](CCCCN)C(=O)N[C@@H](Cc1cccc2ccccc12)C(=O)O` [BPI.146] (H-KSKVGWLIQLF[1Nal]K[1Nal]-OH; N-terminus and C-terminus assumed), the “pmol added to well to achieve a 30 mm^2 bactericidal zone, S. aureus” value (from here on “pmol added to well … S. aureus”) in test [1] was “b (no detectable activity up to 5 μg/well)”. The “pmol added to well to achieve a 30 mm^2 bactericidal zone, E. coli O111:B4” value (from here on “pmol added to well … E. coli O111:B4”) in test [2] is on record as “b (no detectable activity up to 5 μg/well)”. In addition, in test [3], the “pmol added to well to achieve a 30 mm^2 bactericidal zone, E. coli J5” value (“pmol added to well … E. coli J5” below) is “b (no detectable activity up to 5 μg/well)”. For the same compound, the “MIC C. alb” value in test [4] is above 50.00 µg/mL.
As for `CC[C@H](C)[C@H](NC(=O)[C@H](CC(C)C)NC(=O)[C@H](Cc1cccc2ccccc12)NC(=O)CNC(=O)[C@@H](NC(=O)[C@H](CCCCN)NC(=O)[C@H](CO)NC(=O)[C@@H](N)CCCCN)C(C)C)C(=O)N[C@@H](CCC(N)=O)C(=O)N[C@@H](CC(C)C)C(=O)N[C@@H](Cc1ccccc1)C(=O)N[C@@H](Cc1cccc2ccccc12)C(=O)N[C@@H](CCCCN)C(=O)N[C@@H](CCCCN)C(=O)O` [BPI.148, KSKVGAβ-(1-naphthyl)LIQLFAβ-(1-naphthyl)KK] (H-KSKVG[1Nal]LIQLF[1Nal]KK-OH; N-terminus and C-terminus assumed), in test [1], the “pmol added to well … S. aureus” value is given as “b (no detectable activity up to 5 μg/well)”. The “pmol added to well … E. coli O111:B4” value in test [2] is listed as “b (no detectable activity up to 5 μg/well)”. For the same compound, the “pmol added to well … E. coli J5” value in test [3] is 4,206.57 pmol. Besides, the “MIC C. alb” value in test [4] was 50.00 µg/mL (≈ 28 µM).
On to `CC(C)C[C@H](NC(=O)[C@H](Cc1ccccc1)NC(=O)[C@H](CCCNC(=N)N)NC(=O)[C@H](CCCCN)NC(=O)[C@H](CCC(N)=O)NC(=O)[C@H](C)NC(=O)[C@H](CCCCN)NC(=O)[C@H](Cc1c[nH]c2ccccc12)NC(=O)[C@H](CCCCN)NC(=O)[C@H](CCCCN)NC(=O)[C@H](CC(C)C)NC(=O)[C@H](Cc1ccccc1)NC(=O)[C@H](CCCNC(=N)N)NC(=O)[C@H](Cc1cccc2ccccc12)NC(=O)[C@H](Cc1cccc2ccccc12)NC(=O)[C@H](C)NC(=O)[C@H](CCCCN)NC(=O)[C@H](Cc1c[nH]c2ccccc12)NC(=O)[C@@H](N)CCCCN)C(=O)N[C@@H](CCCCN)C(=O)O` [BPI.154] (H-KWKA[1Nal][1Nal]RFLKKWKAQKRFLK-OH; N-terminus and C-terminus assumed), for which the “pmol added to well … S. aureus” value in test [1] is recorded as 30,052,224.71 pmol. Moreover, the “pmol added to well … E. coli O111:B4” value in test [2] is given as 2,977.76 pmol. Moreover, in test [3], the “pmol added to well … E. coli J5” value turned out to be 197.00 pmol. Also, the “MIC C. alb” value in test [4] is above 100.00 µg/mL.
In the same order, the values of `CC(C)C[C@H](NC(=O)[C@H](Cc1ccccc1)NC(=O)[C@H](CCCNC(=N)N)NC(=O)[C@H](Cc1cccc2ccccc12)NC(=O)[C@H](Cc1cccc2ccccc12)NC(=O)[C@H](C)NC(=O)[C@H](CCCCN)NC(=O)[C@H](Cc1c[nH]c2ccccc12)NC(=O)[C@H](CCCCN)NC(=O)[C@H](CCCCN)NC(=O)[C@H](CC(C)C)NC(=O)[C@H](Cc1ccccc1)NC(=O)[C@H](CCCNC(=N)N)NC(=O)[C@H](CCCCN)NC(=O)[C@H](CCC(N)=O)NC(=O)[C@H](C)NC(=O)[C@H](CCCCN)NC(=O)[C@H](Cc1c[nH]c2ccccc12)NC(=O)[C@@H](N)CCCCN)C(=O)N[C@@H](CCCCN)C(=O)O` [BPI.155] (H-KWKAQKRFLKKWKA[1Nal][1Nal]RFLK-OH; N-terminus and C-terminus assumed) are 5,530,185,440.73 pmol, 53,027,986.44 pmol, 5,912.26 pmol and above 100.00 µg/mL.
Consider `CC[C@H](C)[C@H](NC(=O)[C@H](CC(C)C)NC(=O)[C@H](Cc1c[nH]c2ccccc12)NC(=O)CNC(=O)[C@@H](NC(=O)[C@H](CCCCN)NC(=O)[C@H](CO)NC(=O)[C@H](CCCCN)NC(=O)[C@H](CCCCN)NC(=O)[C@H](CC(C)C)NC(=O)[C@H](Cc1ccccc1)NC(=O)[C@H](CCCNC(=N)N)NC(=O)[C@H](Cc1cccc2ccccc12)NC(=O)[C@H](CCC(N)=O)NC(=O)[C@H](C)NC(=O)[C@H](CCCCN)NC(=O)[C@H](Cc1cccc2ccccc12)NC(=O)[C@@H](N)CCCCN)C(C)C)C(=O)N[C@@H](CCC(N)=O)C(=O)N[C@@H](CC(C)C)C(=O)N[C@@H](Cc1c[nH]c2ccccc12)C(=O)N[C@@H](Cc1c[nH]cn1)C(=O)N[C@@H](CCCCN)C(=O)N[C@@H](CCCCN)C(N)=O` [BPI.159] (H-K[1Nal]KAQ[1Nal]RFLKKSKVGWLIQLWHKK-NH2; N-terminus and C-terminus assumed), for which the “pmol added to well … S. aureus” value in test [1] is given as 14,387.00 pmol. Besides, the “pmol added to well … E. coli O111:B4” value in test [2] is 152,678.66 pmol. In addition, in test [3], the “pmol added to well … E. coli J5” value was 765.43 pmol. Further, in test [4], the “MIC C. alb” value is 50.00 µg/mL (≈ 15.9 µM).
For `CC(C)C[C@H](NC(=O)[C@H](Cc1ccccc1)NC(=O)[C@H](CCCNC(=N)N)NC(=O)[C@H](Cc1cccc2ccccc12)NC(=O)[C@H](CCC(N)=O)NC(=O)[C@H](C)NC(=O)[C@H](CCCCN)NC(=O)[C@H](Cc1cccc2ccccc12)NC(=O)[C@H](CCCCN)NC(=O)[C@H](CCCCN)NC(=O)[C@H](CC(C)C)NC(=O)[C@H](Cc1ccccc1)NC(=O)[C@H](CCCNC(=N)N)NC(=O)[C@H](Cc1cccc2ccccc12)NC(=O)[C@H](CCC(N)=O)NC(=O)[C@H](C)NC(=O)[C@H](CCCCN)NC(=O)[C@H](Cc1cccc2ccccc12)NC(=O)[C@@H](N)CCCCN)C(=O)N[C@@H](CCCCN)C(N)=O` [BPI.160] (H-K[1Nal]KAQ[1Nal]RFLKK[1Nal]KAQ[1Nal]RFLK-NH2; N-terminus and C-terminus assumed) the same measures were 352,608.37 pmol, 2,967.57 pmol, 288.78 pmol and above 100.00 µg/mL.
For `C[C@@H]1NC(=O)[C@H](CCCCN)NC(=O)[C@H](Cc2c[nH]c3ccccc23)NC(=O)[C@H](CCCCN)NC(=O)[C@@H](N)CSSC[C@@H](C(N)=O)NC(=O)[C@H](Cc2ccccc2)NC(=O)[C@H](CCCNC(=N)N)NC(=O)[C@H](CCCCN)NC(=O)[C@H](CCC(N)=O)NC1=O` [BPI.169] (H-CKWKAQKRFC-NH2; disulfide 1-10; N-terminus and C-terminus assumed) the same measures were 17,281.61 pmol, 36,025.95 pmol, 4,893.83 pmol and above 100.00 µg/mL.
As to KSKVGWLIQLFHKK [BPI.13p], in test [5], the “EC50 (peptide concentration at which the growth inhibitory effect of LPS was reversed by 50%)” value worked out at 2.0 ± 0.3 µg/mL and the “IC50 (peptide concentration at which RAW cell growth was inhibited by 50%)” value was above 50 µg/mL.
With KSKVKALIQLFHKK [BPI.161], the “pmol added to well … S. aureus” value in test [1] is listed as 100,476.32 pmol. For the same compound, the “pmol added to well … E. coli O111:B4” value in test [2] is on record as “b (no detectable activity up to 5 μg/well)”. In addition, the “pmol added to well … E. coli J5” value in test [3] was 1,201.79 pmol. Moreover, in test [4], the “MIC C. alb” value is 3.13 µg/mL.
KWKAQKRF [BPI.167]: in test [1], the “pmol added to well … S. aureus” value is listed as “b (no detectable activity up to 5 μg/well)”. The “pmol added to well … E. coli O111:B4” value in test [2] is recorded as “b (no detectable activity up to 5 μg/well)”. The “pmol added to well … E. coli J5” value in test [3] is 25,489.99 pmol. Further, in test [4], the “MIC C. alb” value is above 50.00 µg/mL.
